This note sets out measurements from patent US9999619B2, “Piperidin-4-yl azetidine derivatives as JAK1 inhibitors” (Incyte Corporation, priority 2010, dated 2018).

What all share (assay type): biochemical
The target in one assay is Jak2 (a.a. 828-1132) (Homo sapiens (Human), UniProt O60674). The assay can be described thus: In vitro JAK kinase assay (HTRF, phosphorylation of a biotinylated peptide), JAK2. The following applies: measured at 1 mM ATP. The method, then:
(§1) Compounds herein were tested for inhibitory activity of JAK targets according to the following in vitro assay described in Park et al., Analytical Biochemistry 1999, 269, 94-104. The catalytic domains of human JAK1 (a.a. 837-1142), Jak2 (a.a. 828-1132) and Jak3 (a.a. 781-1124) with an N-terminal His tag were expressed using baculovirus in insect cells and purified. The catalytic activity of JAK1, JAK2 or JAK3 was assayed by measuring the phosphorylation of a biotinylated peptide. The phosphorylated peptide was detected by homogenous time resolved fluorescence (HTRF). […] Reactions were carried out at room temperature for 1 hr and then stopped with 20 μL 45 mM EDTA, 300 nM SA-APC, 6 nM Eu-Py20 in assay buffer (Perkin Elmer, Boston, Mass.). Binding to the Europium labeled antibody took place for 40 minutes and HTRF signal was measured on a Fusion plate reader (Perkin Elmer, Boston, Mass.).
On the technique in general: TR-FRET usually uses a lanthanide donor and a delayed reading to cut background.

The target of assay [1] is human JAK1 (a.a. 837-1142). The assay can be described thus: In vitro JAK kinase assay (HTRF, phosphorylation of a biotinylated peptide), JAK1. The note with it: ratio of JAK2 IC50 to JAK1 IC50, measured at 1 mM ATP. The method, then:
as §1

The target in assay [2] is human JAK1 (a.a. 837-1142) (Homo sapiens, UniProt P23458). The description is as above. The following applies: measured at 1 mM ATP. The protocol:
as §1

Bounds are passed on as bounds.

Sequence of Jak2 (a.a. 828-1132) (O60674 828-1132): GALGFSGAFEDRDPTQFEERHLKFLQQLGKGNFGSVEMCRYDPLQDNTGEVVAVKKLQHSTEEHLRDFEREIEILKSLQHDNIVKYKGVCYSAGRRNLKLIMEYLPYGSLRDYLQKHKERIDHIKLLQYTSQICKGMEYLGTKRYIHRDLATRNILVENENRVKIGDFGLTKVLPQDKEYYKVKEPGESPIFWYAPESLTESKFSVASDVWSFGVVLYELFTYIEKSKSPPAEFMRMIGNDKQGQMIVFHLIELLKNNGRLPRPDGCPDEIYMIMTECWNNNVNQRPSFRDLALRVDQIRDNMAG

As usually defined, the IC50 is the concentration that gives 50% inhibition. As for `N#CCC1(n2cc(-c3ncnc4[nH]ccc34)cn2)CN([C@@H]2CCN(C(=O)c3ccnc(C(F)(F)F)c3F)C[C@@H]2F)C1` (relative stereo) [Example 361, {1-{cis-3-Fluoro-1-[3-fluoro-2-(trifluoromethyl)isonicotinoyl]piperidin-4-yl}-3-[4-(7H-pyrrolo[2,3-d]pyrimidin-4-yl)-1H-pyrazol-1-yl]azetidin-3-yl}acetonitrile], the IC50 is 0.05 to 0.1 µM at Jak2 (a.a. 828-1132) and ≤ 0.005 µM in assay [2]. Further, in assay [1], the “IC50 Ratio JAK2/JAK1” value worked out at 20.9.

Take `N#CCC1(n2cc(-c3ncnc4[nH]ccc34)cn2)CN([C@@H]2CCN(C(=O)c3ccnc(C(F)(F)F)n3)C[C@@H]2F)C1` (relative stereo) [Example 362, {1-(cis-3-Fluoro-1-{[2-(trifluoromethyl)pyrimidin-4-yl]carbonyl}piperidin-4-yl)-3-[4-(7H-pyrrolo[2,3-d]pyrimidin-4-yl)-1H-pyrazol-1-yl]azetidin-3-yl}acetonitrile]: the IC50 at Jak2 (a.a. 828-1132) was 0.05 to 0.1 µM; in assay [2], ≤ 0.005 µM. Moreover, in assay [1], the “IC50 Ratio JAK2/JAK1” value is given as 22.4.

Turning to `CC1CC(N2CC(CC#N)(n3cc(-c4ncnc5[nH]ccc45)cn3)C2)CCN1C(=O)c1cccc(F)c1` (single isomer, unassigned) [Example 149, {1-[1-(3-fluorobenzoyl)-2-methylpiperidin-4-yl]-3-[4-(7H-pyrrolo[2,3-d]pyrimidin-4-yl)-1H-pyrazol-1-yl]azetidin-3-yl}acetonitrile], in assay [1], the “IC50 Ratio JAK2/JAK1” value is 5.0. For the same compound, the IC50 in assay [2] is ≤ 0.005 µM.

In the case of `CC1CC(N2CC(CC#N)(n3cc(-c4ncnc5[nH]ccc45)cn3)C2)CCN1C(=O)c1cccc(F)c1` (single isomer, unassigned) [Example 150, {1-[1-(3-fluorobenzoyl)-2-methylpiperidin-4-yl]-3-[4-(7H-pyrrolo[2,3-d]pyrimidin-4-yl)-1H-pyrazol-1-yl]azetidin-3-yl}acetonitrile], the “IC50 Ratio JAK2/JAK1” value in assay [1] is 7.0. In addition, the IC50 in assay [2] was ≤ 0.005 µM.

`CC1CC(N2CC(CC#N)(n3cc(-c4ncnc5[nH]ccc45)cn3)C2)CCN1Cc1ccc(N(C)C)c(C#N)c1F` (single isomer, unassigned) [Example 242, 3-[(4-{3-(cyanomethyl)-3-[4-(7H-pyrrolo[2,3-d]pyrimidin-4-yl)-1H-pyrazol-1-yl]azetidin-1-yl}-2-methylpiperidin-1-yl)methyl]-6-(dimethylamino)-2-fluorobenzonitrile]: the “IC50 Ratio JAK2/JAK1” value in assay [1] is given as 8.3.

For `CC1CC(N2CC(CC#N)(n3cc(-c4ncnc5[nH]ccc45)cn3)C2)CCN1Cc1ccc(N(C)C)c(C#N)c1F` (single isomer, unassigned) [Example 243, 3-[(4-{3-(cyanomethyl)-3-[4-(7H-pyrrolo[2,3-d]pyrimidin-4-yl)-1H-pyrazol-1-yl]azetidin-1-yl}-2-methylpiperidin-1-yl)methyl]-6-(dimethylamino)-2-fluorobenzonitrile], the “IC50 Ratio JAK2/JAK1” value in assay [1] is given as 6.4.

Consider `N#CCC1(n2cc(-c3ncnc4[nH]ccc34)cn2)CN(C2CCN(C(=O)c3ccc(-c4ccc5ncccc5c4)c(F)c3)CC2)C1` [Example 2, {1-[1-(3-Fluoro-4-quinolin-6-ylbenzoyl)piperidin-4-yl]-3-[4-(7H-pyrrolo[2,3-d]pyrimidin-4-yl)-1H-pyrazol-1-yl]azetidin-3-yl}acetonitrile], for which the half-inhibitory concentration (IC50) against Jak2 (a.a. 828-1132) was 0.05 to 0.1 µM; in assay [2], ≤ 0.005 µM. Moreover, in assay [1], the “IC50 Ratio JAK2/JAK1” value was determined as 12.3.

For `N#CCC1(n2cc(-c3ncnc4[nH]ccc34)cn2)CN(C2CCN(C(=O)c3cc(F)cc(F)c3)CC2)C1` [Example 3, {1-[1-(3,5-difluorobenzoyl)piperidin-4-yl]-3-[4-(7H-pyrrolo[2,3-d]pyrimidin-4-yl)-1H-pyrazol-1-yl]azetidin-3-yl}acetonitrile], the half-inhibitory concentration (IC50) at Jak2 (a.a. 828-1132) is 0.01 to 0.05 µM; in assay [2], ≤ 0.005 µM. For the same compound, in assay [1], the “IC50 Ratio JAK2/JAK1” value turned out to be 11.0.

Regarding `N#CCC1(n2cc(-c3ncnc4[nH]ccc34)cn2)CN(C2CCN(C(=O)c3cc(F)c(F)c(F)c3)CC2)C1` [Example 4, {3-[4-(7H-pyrrolo[2,3-d]pyrimidin-4-yl)-1H-pyrazol-1-yl]-1-[1-(3,4,5-trifluorobenzoyl)piperidin-4-yl]azetidin-3-yl}acetonitrile], the IC50 at Jak2 (a.a. 828-1132) lay in the range of 0.05 to 0.1 µM; in assay [2], 0.005 to 0.02 µM. In addition, the “IC50 Ratio JAK2/JAK1” value in assay [1] was 10.2.

As to `COc1ccc(C(=O)N2CCC(N3CC(CC#N)(n4cc(-c5ncnc6[nH]ccc56)cn4)C3)CC2)cc1F` [Example 5, {1-[1-(3-fluoro-4-methoxybenzoyl)piperidin-4-yl]-3-[4-(7H-pyrrolo[2,3-d]pyrimidin-4-yl)-1H-pyrazol-1-yl]azetidin-3-yl}acetonitrile], the IC50 is 0.01 to 0.05 µM against Jak2 (a.a. 828-1132) and ≤ 0.005 µM in assay [2]. In addition, in assay [1], the “IC50 Ratio JAK2/JAK1” value amounted to 12.0.

Turning to `N#CCC1(n2cc(-c3ncnc4[nH]ccc34)cn2)CN(C2CCN(C(=O)c3ccc(O)c(F)c3)CC2)C1` [Example 6, {1-[1-(3-fluoro-4-hydroxybenzoyl)piperidin-4-yl]-3-[4-(7H-pyrrolo[2,3-d]pyrimidin-4-yl)-1H-pyrazol-1-yl]azetidin-3-yl}acetonitrile], the IC50 is 0.01 to 0.05 µM against Jak2 (a.a. 828-1132) and ≤ 0.005 µM in assay [2]. In addition, the “IC50 Ratio JAK2/JAK1” value in assay [1] worked out at 14.3.

With `N#CCC1(n2cc(-c3ncnc4[nH]ccc34)cn2)CN(C2CCN(C(=O)c3cccc(C(F)(F)F)c3F)CC2)C1` [Example 7, {1-{1-[2-fluoro-3-(trifluoromethyl)benzoyl]piperidin-4-yl}-3-[4-(7H-pyrrolo[2,3-d]pyrimidin-4-yl)-1H-pyrazol-1-yl]azetidin-3-yl}acetonitrile], the IC50 against Jak2 (a.a. 828-1132) was ≤ 0.01 µM; in assay [2], ≤ 0.005 µM. Also, the “IC50 Ratio JAK2/JAK1” value in assay [1] turned out to be 10.8.

Turning to `N#CCC1(n2cc(-c3ncnc4[nH]ccc34)cn2)CN(C2CCN(C(=O)C3CCCCC3)CC2)C1` [Example 8, {1-[1-(cyclohexylcarbonyl)piperidin-4-yl]-3-[4-(7H-pyrrolo[2,3-d]pyrimidin-4-yl)-1H-pyrazol-1-yl]azetidin-3-yl}acetonitrile], the figures for the IC50 (against Jak2 (a.a. 828-1132); in assay [2]) were 0.05 to 0.1 µM and 0.005 to 0.02 µM, respectively. Moreover, the “IC50 Ratio JAK2/JAK1” value in assay [1] amounted to 11.0.

For `N#CCC1(n2cc(-c3ncnc4[nH]ccc34)cn2)CN(C2CCN(C(=O)c3ccccc3)CC2)C1` [Example 9, {1-(1-benzoylpiperidin-4-yl)-3-[4-(7H-pyrrolo[2,3-d]pyrimidin-4-yl)-1H-pyrazol-1-yl]azetidin-3-yl}acetonitrile], the results for the IC50 (against Jak2 (a.a. 828-1132); in assay [2]) were 0.01 to 0.05 µM and ≤ 0.005 µM, respectively. For the same compound, the “IC50 Ratio JAK2/JAK1” value in assay [1] is 3.2.

In the case of `N#CCC1(n2cc(-c3ncnc4[nH]ccc34)cn2)CN(C2CCN(C(=O)c3ccccc3C#N)CC2)C1` [Example 10, 2-[(4-{3-(cyanomethyl)-3-[4-(7H-pyrrolo[2,3-d]pyrimidin-4-yl)-1H-pyrazol-1-yl]azetidin-1-yl}piperidin-1-yl)carbonyl]benzonitrile], the IC50 on Jak2 (a.a. 828-1132) is 0.01 to 0.05 µM; in assay [2] it was 0.005 to 0.02 µM. Besides, the “IC50 Ratio JAK2/JAK1” value in assay [1] amounted to 4.4.

As to `N#CCC1(n2cc(-c3ncnc4[nH]ccc34)cn2)CN(C2CCN(C(=O)c3cccc(C#N)c3)CC2)C1` [Example 11, 3-[(4-{3-(cyanomethyl)-3-[4-(7H-pyrrolo[2,3-d]pyrimidin-4-yl)-1H-pyrazol-1-yl]azetidin-1-yl}piperidin-1-yl)carbonyl]benzonitrile], the figures for the concentration for half-maximal inhibition (IC50) (on Jak2 (a.a. 828-1132); in assay [2]) were 0.01 to 0.05 µM and 0.005 to 0.02 µM, respectively. Besides, the “IC50 Ratio JAK2/JAK1” value in assay [1] is 7.2.

Consider `N#CCC1(n2cc(-c3ncnc4[nH]ccc34)cn2)CN(C2CCN(C(=O)c3ccc(C#N)cc3)CC2)C1` [Example 12, 4-[(4-{3-(cyanomethyl)-3-[4-(7H-pyrrolo[2,3-d]pyrimidin-4-yl)-1H-pyrazol-1-yl]azetidin-1-yl}piperidin-1-yl)carbonyl]benzonitrile], for which the results for the IC50 (against Jak2 (a.a. 828-1132); in assay [2]) were > 0.1 µM and 0.02 to 0.03 µM, respectively. Besides, the “IC50 Ratio JAK2/JAK1” value in assay [1] is recorded as 5.2.

Take `N#CCC1(n2cc(-c3ncnc4[nH]ccc34)cn2)CN(C2CCN(C(=O)c3ccc(-c4cccc5cccnc45)c(F)c3)CC2)C1` [Example 132, {1-[1-(3-fluoro-4-quinolin-8-ylbenzoyl)piperidin-4-yl]-3-[4-(7H-pyrrolo[2,3-d]pyrimidin-4-yl)-1H-pyrazol-1-yl]azetidin-3-yl}acetonitrile]: the IC50 against Jak2 (a.a. 828-1132) is ≤ 0.01 µM. Also, in assay [1], the “IC50 Ratio JAK2/JAK1” value stood at 5.8.

In the case of `N#CCC1(n2cc(-c3ncnc4[nH]ccc34)cn2)CN(C2CCN(Cc3ccc(F)cc3F)CC2)C1` [Example 217, {1-[1-(2,4-difluorobenzyl)piperidin-4-yl]-3-[4-(7H-pyrrolo[2,3-d]pyrimidin-4-yl)-1H-pyrazol-1-yl]azetidin-3-yl}acetonitrile], the “IC50 Ratio JAK2/JAK1” value in assay [1] came to 5.8.

For `CC1CC(N2CC(CC#N)(n3cc(-c4ncnc5[nH]ccc45)cn3)C2)CCN1Cc1c(F)cccc1Cl` (centres unmarked) [Example 244, {1-[1-(2-chloro-6-fluorobenzyl)-2-methylpiperidin-4-yl]-3-[4-(7H-pyrrolo[2,3-d]pyrimidin-4-yl)-1H-pyrazol-1-yl]azetidin-3-yl}acetonitrile], the “IC50 Ratio JAK2/JAK1” value in assay [1] is on record as 1.8.

`CC1CC(N2CC(CC#N)(n3cc(-c4ncnc5[nH]ccc45)cn3)C2)CCN1Cc1c(F)cccc1Cl` (centres unmarked) [Example 245, {1-[1-(2-chloro-6-fluorobenzyl)-2-methylpiperidin-4-yl]-3-[4-(7H-pyrrolo[2,3-d]pyrimidin-4-yl)-1H-pyrazol-1-yl]azetidin-3-yl}acetonitrile]: the “IC50 Ratio JAK2/JAK1” value in assay [1] is 1.5.
